Data from ChEMBL document CHEMBL4219123, “Synthesis of new analogs of tetraiodothyroacetic acid (tetrac) as novel angiogenesis inhibitors for treatment of cancer” (Bioorg Med Chem Lett, 2018).
Active and inactive are the calls of the source. The calls are words filed in the database; no cut-off is given here.

test system: Mus musculus; assay: Antiangiogenic activity in C57/B6 mouse injected with matrigel containing murine vascular growth factor assessed as reduction in hemoglobin content in matrigel plug at 10ug/10ull to 200 uL matrigel administered subcutaneously measured after 14 days by spectrophotometry-based Drabkin method; assay type: functional, organism-based

For O=C(O)Cc1cc(I)c(Oc2cc(I)c(OCCN3C(=O)c4ccccc4C3=O)c(I)c2)c(I)c1, which Activity is on record?
The Activity was “Active”.

Which Activity does the source give for O=C(O)Cc1cc(I)c(Oc2cc(I)c(OCc3cccnc3)c(I)c2)c(I)c1 here?
The Activity was “Active”.

O=C(O)Cc1cc(I)c(Oc2cc(I)c(O)c(I)c2)c(I)c1 was tested. Which Activity did it give?
Its Activity is “Active”.

For O=C(O)Cc1cc(I)c(Oc2cc(I)c(OCCCN3C(=O)c4ccccc4C3=O)c(I)c2)c(I)c1, which Activity is on record?
The Activity was “Active”.

With O=C(O)Cc1cc(I)c(Oc2cc(I)c(OCCCc3ccccc3)c(I)c2)c(I)c1 as the compound, how does the Activity read?
The Activity was “Active”.

With C#CCOc1c(I)cc(Oc2c(I)cc(CC(=O)O)cc2I)cc1I as the compound, how does the Activity read?
Its Activity is “Active”.
